Measured values from patent US3960863A, “Pyrido[1,2-a]pyrimidinone derivatives” (Sankyo Company Limited, priority 1974, dated 1976).
Like-named read-outs stand apart in the source and are kept apart here.

Experiments:
[1] = Acute toxicity in mouse (LD50); details: in vivo
[2] = tested on: Thiopental-induced Anesthesia; experiment: Potentiating effect of thiopental-induced anesthesia (anesthesia-potentiating effect); assay type: in vivo, mouse; details: 0.5 h, read-out: Potentiating Effect of Thiopental-induced Anesthesia ED50
Description: The pharmacological test was performed in the manner that to a mouse having the body weight of about 25 g was orally administered and, after 30 minutes, given through the vein sodium thiopental in an amount of 30 mg per 1 kg of the body weight, and then the duration time of loss of righting reflux was detected. In the above Table, the value is expressed in ED50 value, by which the duration time of loss of righting reflex is prolonged twice as long as that of the control having been given with thiopental only.

[3] = ip, 95% confidence limits in parentheses where given, read-out: Acute Toxicity in mouse LD50 (i.p.)
[4] = po, 95% confidence limits in parentheses, read-out: Acute Toxicity in mouse LD50 (p.o.)
[5] = mouse, oral, sodium thiopental 30 mg/kg i.v. after 30 minutes, ED50 = dose doubling duration of loss of righting reflex vs control, Litchfield-Wilcoxon, 95% confidence limits in parentheses

Compound: CN(C)CCCN1c2ccccc2Sc2ccc(Cl)cc21 [chlorpromazine, reference compound]
- LD50 [1, 3]: 105 mg/kg
- LD50 [1, 4]: 245 mg/kg
- ED50 ([2]; Mus musculus, po): 3.5 mg/kg

Compound: Cc1ccn2c(=O)c(CCN3CCN(c4cccc(Cl)c4)CC3)c(C)nc2c1 [3-[2-(4-m-Chlorophenyl-1-piperazinyl)ethyl]-2,8-dimethyl-4H-pyrido[1,2-a]pyrimidin-4-one]
- LD50 [1, 3]: 100 to 300 mg/kg
- LD50 [1, 4]: 635 mg/kg
- ED50 [2, 5]: 0.92 mg/kg

Compound: Cc1cccc(N2CCN(CCc3c(C)nc4c(C)cccn4c3=O)CC2)c1 [3-[2-(4-m-Tolyl-1-piperazinyl)ethyl]-2,9-dimethyl-4H-pyrido[1,2-a]pyrimidin-4-one]
- LD50 [1, 3]: 100 to 300 mg/kg
- ED50 [2, 5]: 1.25 mg/kg

Compound: Cc1ccc(N2CCN(CCc3c(C)nc4c(C)cccn4c3=O)CC2)cc1 [3-[2-(4-p-Tolyl-1-piperazinyl)ethyl]-2,9-dimethyl-4H-pyrido[1,2-a]pyrimidin-4-one]
- LD50 [1, 3]: 100 to 300 mg/kg
- ED50 [2, 5]: 1.8 mg/kg

Compound: Cc1cccc(N2CCN(CCc3c(C)nc4cc(C)cc(C)n4c3=O)CC2)c1 [3-[2-(4-m-tolyl-1-piperazinyl)ethyl]-2,6,8-trimethyl-4H-pyrido[1,2-a]pyrimidin-4-one]
- LD50 [1, 3]: 100 to 300 mg/kg
- ED50 [2, 5]: 1.7 mg/kg

Compound: Cc1ccn2c(=O)c(CCN3CCN(c4ccc(Cl)cc4)CC3)c(C)nc2c1 [3-[2-(4-p-Chlorophenyl-1-piperazinyl)ethyl]-2,8-dimethyl-4H-pyrido[1,2-a]pyrimidin-4-one]
- LD50 [1, 3]: 100 to 300 mg/kg
- ED50 [2, 5]: 2.9 mg/kg

Compound: Cc1cccc(N2CCN(CCc3c(C)nc4cc(C)ccn4c3=O)CC2)c1 [3-[2-(4-m-tolyl-1-piperazinyl)ethyl]-2,8-dimethyl-4H-pyrido[1,2-a]pyrimidin-4-one]
- LD50 [1, 3]: 100 to 300 mg/kg
- LD50 [1, 4]: 480 mg/kg
- ED50 [2, 5]: 0.8 mg/kg

Compound: COc1cccc(N2CCN(CCc3c(C)nc4cc(C)ccn4c3=O)CC2)c1 [3-[2-(4-m-Methoxyphenyl-1-piperazinyl)ethyl]-2,8-dimethyl-4H-pyrido[1,2-a]pyrimidin-4-one]
- LD50 [1, 3]: 100 to 300 mg/kg
- ED50 [2, 5]: 0.7 mg/kg
